According to ChEMBL document CHEMBL4699582, “Discovery of OATD-01, a First-in-Class Chitinase Inhibitor as Potential New Therapeutics for Idiopathic Pulmonary Fibrosis” (J Med Chem, 2020):
The source made the active and inactive calls. The rule behind the calls is not given here.

Assays:
[1] = Volume of distribution at steady state in Balb/c mouse at 3 mg/kg, iv administered as single bolus dose measured upto 24 hrs by LC-MS/MS analysis; assay type: ADME, organism-based; conditions: in vivo, read-out: Vdss
[2] = Dose normalized AUC (0 to 24 hrs) in Sprague-Dawley rat at 6 mg/kg, po administered as single dose by LC-MS/MS analysis; assay type: ADME, organism-based; conditions: in vivo
[3] = molecular target: Hepatic sodium/bile acid cotransporter (Homo sapiens, UniProt Q14973); experiment: Inhibition of NTCP (unknown origin) at 1 to 10 uM; conditions: dose 1-10 µM
Sequence of Hepatic sodium/bile acid cotransporter (Q14973 whole entry): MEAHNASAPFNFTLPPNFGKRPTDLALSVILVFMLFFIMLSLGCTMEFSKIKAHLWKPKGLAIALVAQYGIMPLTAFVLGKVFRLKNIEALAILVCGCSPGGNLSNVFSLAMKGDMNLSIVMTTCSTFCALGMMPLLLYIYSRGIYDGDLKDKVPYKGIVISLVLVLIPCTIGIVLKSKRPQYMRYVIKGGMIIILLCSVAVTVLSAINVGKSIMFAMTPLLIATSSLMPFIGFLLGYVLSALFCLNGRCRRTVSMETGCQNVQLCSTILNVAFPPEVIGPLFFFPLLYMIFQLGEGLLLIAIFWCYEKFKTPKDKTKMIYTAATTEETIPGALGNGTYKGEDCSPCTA

[4] = AUC (0 to 24 hrs) in Beagle dog at 10 mg/kg, po administered as single dose by LC-MS/MS analysis; assay type: ADME, organism-based, Canis lupus familiaris; parameters: time < 24 hr, route oral, dose 10 mg/kg; conditions: in vivo
[5] = Clearance (0 to 24 hrs) in Sprague-Dawley rat at 2 mg/kg, iv administered as single bolus dose by LC-MS/MS analysis; assay type: ADME, organism-based; conditions: in vivo
[6] = Clearance (0 to 24 hrs) in Balb/c mouse at 3 mg/kg, iv administered as single bolus dose by LC-MS/MS analysis; assay type: ADME, organism-based; conditions: in vivo
[7] = molecular target: Solute carrier organic anion transporter family member 1B3 (Homo sapiens, UniProt Q9NPD5); experiment: Inhibition of OATP1B3 (unknown origin) at 1 to 10 uM; conditions: dose 1-10 µM
Sequence of Solute carrier organic anion transporter family member 1B3 (Q9NPD5 whole entry): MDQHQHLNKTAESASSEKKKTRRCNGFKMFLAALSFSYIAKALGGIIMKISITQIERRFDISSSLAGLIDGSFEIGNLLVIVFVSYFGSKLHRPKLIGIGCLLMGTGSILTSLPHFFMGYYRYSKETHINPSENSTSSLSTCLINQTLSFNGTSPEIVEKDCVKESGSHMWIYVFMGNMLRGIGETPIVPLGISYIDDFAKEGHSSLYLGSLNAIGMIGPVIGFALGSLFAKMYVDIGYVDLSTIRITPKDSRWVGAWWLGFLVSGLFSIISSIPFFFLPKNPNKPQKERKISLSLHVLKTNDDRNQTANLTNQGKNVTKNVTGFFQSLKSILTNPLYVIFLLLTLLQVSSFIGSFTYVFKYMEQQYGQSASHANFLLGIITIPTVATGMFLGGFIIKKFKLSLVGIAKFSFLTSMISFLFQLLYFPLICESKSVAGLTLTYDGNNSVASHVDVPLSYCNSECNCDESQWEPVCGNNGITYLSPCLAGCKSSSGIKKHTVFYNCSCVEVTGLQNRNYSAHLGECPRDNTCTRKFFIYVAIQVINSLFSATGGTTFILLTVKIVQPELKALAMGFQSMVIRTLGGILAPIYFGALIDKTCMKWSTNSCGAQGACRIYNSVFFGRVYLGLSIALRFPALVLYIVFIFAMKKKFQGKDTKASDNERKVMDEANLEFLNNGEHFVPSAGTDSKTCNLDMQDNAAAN

[8] = Drug uptake in C57BL/6N mouse plasma at 30 mg/kg, po bid administered via gavage measured 24 hrs post dose; assay type: ADME, organism-based; conditions: in vivo
[9] = Dose normalized AUC (0 to 24 hrs) in Balb/c mouse at 3 mg/kg, iv administered as single bolus dose by LC-MS/MS analysis; assay type: ADME, organism-based; conditions: in vivo
[10] = Clearance (0 to 24 hrs) in Beagle dog at 3 mg/kg, iv administered as single bolus dose by LC-MS/MS analysis; assay type: ADME, organism-based, Canis lupus familiaris; conditions: in vivo
[11] = molecular target: Solute carrier organic anion transporter family member 1B1 (Homo sapiens, UniProt Q9Y6L6); experiment: Inhibition of OATP1B1 (unknown origin) at 1 to 10 uM; conditions: dose 1-10 µM
Sequence of Solute carrier organic anion transporter family member 1B1 (Q9Y6L6 whole entry): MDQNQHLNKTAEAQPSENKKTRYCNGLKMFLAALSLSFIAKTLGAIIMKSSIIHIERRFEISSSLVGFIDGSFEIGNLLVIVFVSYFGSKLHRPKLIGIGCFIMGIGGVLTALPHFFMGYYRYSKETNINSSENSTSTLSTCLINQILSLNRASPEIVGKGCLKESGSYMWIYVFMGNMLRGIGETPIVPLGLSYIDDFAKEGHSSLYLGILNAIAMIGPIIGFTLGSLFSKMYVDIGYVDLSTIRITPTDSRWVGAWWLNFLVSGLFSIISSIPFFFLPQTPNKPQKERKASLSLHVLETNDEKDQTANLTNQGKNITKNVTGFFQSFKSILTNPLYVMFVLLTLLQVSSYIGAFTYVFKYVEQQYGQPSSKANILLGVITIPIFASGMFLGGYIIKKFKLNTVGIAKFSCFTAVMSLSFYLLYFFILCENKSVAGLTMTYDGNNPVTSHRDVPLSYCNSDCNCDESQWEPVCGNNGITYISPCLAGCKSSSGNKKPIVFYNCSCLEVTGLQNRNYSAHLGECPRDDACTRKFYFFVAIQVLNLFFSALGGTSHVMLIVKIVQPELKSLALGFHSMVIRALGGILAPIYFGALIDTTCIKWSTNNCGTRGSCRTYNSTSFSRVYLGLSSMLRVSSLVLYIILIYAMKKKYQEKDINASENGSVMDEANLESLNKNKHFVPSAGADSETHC

[12] = Initial plasma concentration in Sprague-Dawley rat at 2 mg/kg, iv administered as single bolus dose by LC-MS/MS analysis; assay type: ADME, organism-based
[13] = Drug uptake in C57BL/6N mouse plasma at 30 mg/kg, po qd administered via gavage measured 24 hrs post dose; assay type: ADME, organism-based; conditions: in vivo
Mus musculus = species on record: Mus musculus; conditions: C57BL/6N, dose 30.0 mg/kg
[14] = molecular target: Ileal sodium/bile acid cotransporter (Homo sapiens, UniProt Q12908); experiment: Inhibition of ASBT (unknown origin) at 1 to 10 uM; conditions: dose 1-10 µM
Sequence of Ileal sodium/bile acid cotransporter (Q12908 whole entry): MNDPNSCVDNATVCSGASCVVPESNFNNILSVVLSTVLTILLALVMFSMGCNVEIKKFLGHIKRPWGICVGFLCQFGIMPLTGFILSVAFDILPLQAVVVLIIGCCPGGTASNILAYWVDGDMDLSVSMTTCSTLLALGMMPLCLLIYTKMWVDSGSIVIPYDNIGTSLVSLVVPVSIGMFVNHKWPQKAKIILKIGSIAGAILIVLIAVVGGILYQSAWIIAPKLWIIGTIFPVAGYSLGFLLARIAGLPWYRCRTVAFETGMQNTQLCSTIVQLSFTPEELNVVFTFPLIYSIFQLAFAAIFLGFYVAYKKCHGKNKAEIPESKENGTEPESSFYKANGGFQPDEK

[15] = Elimination half-life in Balb/c mouse at 10 mg/kg, po administered as single dose by LC-MS/MS analysis; assay type: ADME, organism-based; conditions: in vivo, read-out: beta t1/2 (converted)
[16] = molecular target: ATP-binding cassette sub-family C member 3 (Homo sapiens, UniProt O15438); experiment: Inhibition of MRP3 (unknown origin) at 1 to 10 uM; conditions: dose 1-10 µM
Sequence of ATP-binding cassette sub-family C member 3 (O15438 whole entry): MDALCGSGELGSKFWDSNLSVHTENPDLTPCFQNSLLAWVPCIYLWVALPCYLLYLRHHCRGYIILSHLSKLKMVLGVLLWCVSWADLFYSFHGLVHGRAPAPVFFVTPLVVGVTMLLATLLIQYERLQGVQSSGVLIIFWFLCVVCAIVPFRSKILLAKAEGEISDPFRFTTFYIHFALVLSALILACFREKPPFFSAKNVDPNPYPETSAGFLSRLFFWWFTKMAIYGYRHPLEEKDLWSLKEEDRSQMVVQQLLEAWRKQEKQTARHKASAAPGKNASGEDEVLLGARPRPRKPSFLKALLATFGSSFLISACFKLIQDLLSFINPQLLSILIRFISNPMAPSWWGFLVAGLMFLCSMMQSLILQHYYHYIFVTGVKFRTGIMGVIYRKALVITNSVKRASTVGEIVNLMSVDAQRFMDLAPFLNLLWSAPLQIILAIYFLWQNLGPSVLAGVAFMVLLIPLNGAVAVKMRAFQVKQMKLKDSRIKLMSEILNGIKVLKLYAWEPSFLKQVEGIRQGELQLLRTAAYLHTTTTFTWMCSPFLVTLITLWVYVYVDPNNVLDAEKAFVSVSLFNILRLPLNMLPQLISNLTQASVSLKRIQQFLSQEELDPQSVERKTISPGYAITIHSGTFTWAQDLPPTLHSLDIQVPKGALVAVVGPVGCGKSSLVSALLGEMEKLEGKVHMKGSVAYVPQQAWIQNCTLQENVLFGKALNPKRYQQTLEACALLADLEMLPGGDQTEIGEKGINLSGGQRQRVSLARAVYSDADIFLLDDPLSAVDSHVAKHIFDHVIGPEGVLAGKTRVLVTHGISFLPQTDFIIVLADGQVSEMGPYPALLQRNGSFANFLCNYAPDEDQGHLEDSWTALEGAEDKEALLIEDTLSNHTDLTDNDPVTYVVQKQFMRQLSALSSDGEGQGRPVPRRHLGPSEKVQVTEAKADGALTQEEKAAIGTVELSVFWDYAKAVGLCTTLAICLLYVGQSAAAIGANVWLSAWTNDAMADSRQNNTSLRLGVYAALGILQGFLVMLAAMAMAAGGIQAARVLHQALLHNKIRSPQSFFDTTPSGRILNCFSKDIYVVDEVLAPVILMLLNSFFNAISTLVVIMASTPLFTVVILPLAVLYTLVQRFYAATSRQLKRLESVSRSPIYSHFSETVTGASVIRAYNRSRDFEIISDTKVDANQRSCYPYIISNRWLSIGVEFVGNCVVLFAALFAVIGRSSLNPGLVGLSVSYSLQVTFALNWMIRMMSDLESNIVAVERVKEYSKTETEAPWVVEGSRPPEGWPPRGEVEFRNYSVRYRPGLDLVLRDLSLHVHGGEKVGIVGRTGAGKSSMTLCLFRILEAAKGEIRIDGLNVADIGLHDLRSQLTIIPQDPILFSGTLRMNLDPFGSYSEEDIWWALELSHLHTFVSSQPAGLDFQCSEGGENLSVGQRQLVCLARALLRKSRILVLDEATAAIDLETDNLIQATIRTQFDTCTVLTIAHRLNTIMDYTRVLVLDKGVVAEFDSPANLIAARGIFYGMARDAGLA

[17] = molecular target: ATP-binding cassette sub-family C member 2 (Homo sapiens, UniProt Q92887); experiment: Inhibition of MRP2 (unknown origin) at 1 to 10 uM; conditions: dose 1-10 µM
[18] = Elimination half-life in Balb/c mouse at 3 mg/kg, iv administered as single bolus dose by LC-MS/MS analysis; assay type: ADME, organism-based; conditions: in vivo, read-out: beta t1/2 (converted)
[19] = Oral bioavailability in Balb/c mouse at 10 mg/kg, administered as single dose by LC-MS/MS analysis; assay type: ADME, organism-based; conditions: in vivo
[20] = Elimination half-life in Sprague-Dawley rat at 6 mg/kg, po administered as single dose by LC-MS/MS analysis; assay type: ADME, organism-based; conditions: in vivo, read-out: beta t1/2 (converted)
[21] = Elimination half-life in Beagle dog at 3 mg/kg, iv administered as single bolus dose by LC-MS/MS analysis; assay type: ADME, organism-based, Canis lupus familiaris; conditions: in vivo, read-out: beta t1/2 (converted)
[22] = Clearance (0 to infinity) in Sprague-Dawley rat at 2 mg/kg, iv administered as single bolus dose by LC-MS/MS analysis; assay type: ADME, organism-based; conditions: in vivo
[23] = AUC (0 to 24 hrs) in Balb/c mouse at 10 mg/kg, po administered as single dose by LC-MS/MS analysis; assay type: ADME, organism-based; parameters: time < 24 hr, route oral, dose 10 mg/kg; conditions: in vivo
[24] = Volume of distribution at steady state in Beagle dog at 3 mg/kg, iv administered as single bolus dose measured upto 24 hrs by LC-MS/MS analysis; assay type: ADME, organism-based, Canis lupus familiaris; conditions: in vivo, read-out: Vdss
[25] = Volume of distribution at steady state in Sprague-Dawley rat at 2 mg/kg, iv administered as single bolus dose measured upto 24 hrs by LC-MS/MS analysis; assay type: ADME, organism-based; conditions: in vivo, read-out: Vdss
Cytochrome P450 2C8 = Cytochrome P450 2C8 (Homo sapiens, UniProt P10632); experiment: Inhibition of CYP2C8 (unknown origin); assay type: ADME
Sequence of Cytochrome P450 2C8 (P10632 whole entry): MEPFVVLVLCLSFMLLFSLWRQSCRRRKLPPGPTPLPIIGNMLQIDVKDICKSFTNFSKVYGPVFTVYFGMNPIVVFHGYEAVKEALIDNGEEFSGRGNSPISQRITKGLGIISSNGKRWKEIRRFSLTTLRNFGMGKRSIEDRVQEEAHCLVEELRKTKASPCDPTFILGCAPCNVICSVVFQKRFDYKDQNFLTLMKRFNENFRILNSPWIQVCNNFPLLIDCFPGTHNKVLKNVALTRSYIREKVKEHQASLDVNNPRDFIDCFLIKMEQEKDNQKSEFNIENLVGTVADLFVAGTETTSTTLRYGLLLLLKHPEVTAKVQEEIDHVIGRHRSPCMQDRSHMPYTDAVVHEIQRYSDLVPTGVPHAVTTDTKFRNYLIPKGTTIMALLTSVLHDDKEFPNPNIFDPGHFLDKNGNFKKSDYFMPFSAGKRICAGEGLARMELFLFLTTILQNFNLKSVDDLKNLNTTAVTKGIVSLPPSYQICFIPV

[26] = molecular target: Broad substrate specificity ATP-binding cassette transporter ABCG2 (Homo sapiens, UniProt Q9UNQ0); experiment: Inhibition of BCRP (unknown origin) at 1 to 10 uM; conditions: dose 1-10 µM
Sequence of Broad substrate specificity ATP-binding cassette transporter ABCG2 (Q9UNQ0 whole entry): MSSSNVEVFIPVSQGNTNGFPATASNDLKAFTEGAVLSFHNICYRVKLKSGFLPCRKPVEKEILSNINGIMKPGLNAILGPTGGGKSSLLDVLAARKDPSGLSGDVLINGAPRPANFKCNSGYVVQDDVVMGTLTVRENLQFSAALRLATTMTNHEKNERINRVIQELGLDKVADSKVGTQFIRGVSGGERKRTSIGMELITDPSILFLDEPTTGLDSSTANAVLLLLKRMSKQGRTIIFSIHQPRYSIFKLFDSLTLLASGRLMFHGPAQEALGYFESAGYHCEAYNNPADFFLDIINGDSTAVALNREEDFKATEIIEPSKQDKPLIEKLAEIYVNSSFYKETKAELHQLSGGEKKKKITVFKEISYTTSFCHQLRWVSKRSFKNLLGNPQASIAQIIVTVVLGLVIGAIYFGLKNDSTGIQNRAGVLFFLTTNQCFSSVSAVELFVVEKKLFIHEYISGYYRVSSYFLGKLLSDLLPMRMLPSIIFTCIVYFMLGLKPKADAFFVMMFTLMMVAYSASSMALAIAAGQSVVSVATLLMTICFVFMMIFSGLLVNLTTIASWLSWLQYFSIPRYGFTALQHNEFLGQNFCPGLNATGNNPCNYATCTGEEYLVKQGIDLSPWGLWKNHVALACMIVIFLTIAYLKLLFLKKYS

[27] = Tmax in Balb/c mouse at 10 mg/kg, po administered as single dose by LC-MS/MS analysis; assay type: ADME, organism-based; conditions: in vivo

Vd [1]: 1.01 L/kg
AUC/dose [2]: 3.38 kg·mg·h/L/mg
inhibition (INH) [3]: Not Active
AUC(0-t) at 24 h [4]: 94100 ng·h/mL
clearance [5]: 5.67 mL/min/kg
clearance [6]: 5.83 mL/min/kg
inhibition (INH) [7]: Not Active
Drug uptake [8]: Active
AUC/dose [9]: 2.87 kg·mg·h/L/mg
clearance [10]: 1.67 mL/min/kg
inhibition (INH) [11]: Not Active
C0 [12]: 1000 ng/mL
Drug uptake [13]: Active
inhibition (INH) [14]: Not Active
half-life [15]: 1.88 h
inhibition (INH) [16]: Not Active
inhibition (INH) [17]: Not Active
half-life [18]: 2.09 h
bioavailability [19]: 77.4%
half-life [20]: 4.47 h
half-life [21]: 21.9 h
clearance [22]: 5.67 mL/min/kg
AUC(0-t) at 24 h [23]: 22200 ng·h/mL
Vd [24]: 0.96 L/kg
Vd [25]: 1.82 L/kg
inhibition (INH) (Cytochrome P450 2C8): Not Active
inhibition (INH) [26]: Not Active
Tmax [27]: 2 h
SMILES: C[C@H]1CN(C2CCN(c3nc(N)n[nH]3)CC2)[C@@H](Cc2ccc(Cl)cc2)CO1 [5-(4-((2S,5S)-5-(4-CHLOROBENZYL)-2-METHYLMORPHOLINO)PIPERIDIN-1-YL)-1H-1,2,4-TRIAZOL-3-AMINE]
inhibition (Mus musculus): Active
